Data on four molecules can be found in patent publication US4698352A, “4-oxo-1,4-dihydronicotinic acid derivatives, salts thereof, and antibacterial agents containing the same” (Toyama Chemical Co., Ltd., priority 1982, dated 1987).

What all share (assay): Antibacterial activity (MIC), agar dilution
Common to all, as to format: cell-based
For orientation: In agar dilution the substance is mixed into plates at graded concentrations.

The test system of test [1] is Kl. pneumoniae Y-41. The note with it: Klebsiella pneumoniae, Y41, 10^6 cells per ml, 37° C., 20 hours, read-out: MIC. The source says:
(§1) The amount of bacteria inoculated was 10^4 cells per plate (10^6 cells per ml).

The test system of test [2] is E. coli TK-111. To be noted: Escherichia coli, TK111, 20 h, E. coli TK-111; 10^6 cells per ml; 37° C., 20 hours; read-out: MIC.
Source text: as §1

The subject of test [3] is Ent. cloacae IID977. The note with it: Enterobacter cloacae, IID977, 20 h.
Source text: as §1

For test [4], the system named is Ps. aeruginosa IFO3445. To be noted: Pseudomonas aeruginosa; Ps. aeruginosa IFO3445; 10^6 cells per ml; 37° C., 20 hours; read-out: MIC.
Source text: as §1

Test [5] deals with E. coli NIHJ JC-2. To be noted: Escherichia coli, NIHJJC2, 20 h.
Source text: as §1

Test [6] deals with Pro. morganii T-216. The note with it: Morganella morganii, 37° C.
Source text: as §1

Test [7] deals with Kl. pneumoniae Y-50. To be noted: Klebsiella pneumoniae, Y50, 20 h, 10^6 cells per ml, 37° C., read-out: MIC.
Source text: as §1

For test [8], the system named is Pro. vulgaris GN3027. The note with it: Proteus vulgaris, GN3027, 20 h, Pro. vulgaris GN3027; 10^6 cells per ml; 37° C., 20 hours; read-out: MIC.
Source text: as §1

Test [9] concerns Aci. antitratus A-6. To be noted: 20 h, Aci. antitratus A-6; 10^6 cells per ml; 37° C., 20 hours; read-out: MIC.
Source text: as §1

Test [10] relates to St. aureus FDA209P. The note with it: Staphylococcus aureus, FDA209P, 20 h.
Source text: as §1

The test system of test [11] is Pro. mirabilis T-111. To be noted: Proteus mirabilis, 37° C.
Source text: as §1

In test [12] the test system is Ps. aeruginosa S-68. To be noted: Pseudomonas aeruginosa.
Source text: as §1

The test system of test [13] is Ps. aeruginosa GN918**. The note with it: Pseudomonas aeruginosa, 20 h; Ps. aeruginosa GN918, cephalospolinase-producing; 10^6 cells per ml; read-out: MIC.
Source text: as §1
(§2) ** Cephalospolinase-producing bacteria

Test [14] concerns E. coli GN5482**. To be noted: Escherichia coli, 20 h; E. coli GN5482, cephalospolinase-producing; 10^6 cells per ml; read-out: MIC.
Source text: as §1, §2

Test [15] has as its system Pro. vulgaris GN76**. The note with it: Proteus vulgaris.
Source text: as §1, §2

Test [16] deals with Ps. aeruginosa GN3379*. The note with it: Pseudomonas aeruginosa, 20 h; Ps. aeruginosa GN3379, penicillinase-producing; 10^6 cells per ml; read-out: MIC.
Source text: as §1
(§3) * Penicillinase-producing bacteria

Test [17] relates to St. aureus F-137*. To be noted: Staphylococcus aureus, 20 h.
Source text: as §1, §3

Test [18] concerns E. coli TK-3*. To be noted: Escherichia coli, 20 h.
Source text: as §1, §3

The test system of test [19] is Kl. pneumoniae Y-4*. The note with it: Klebsiella pneumoniae, 20 h, Kl. pneumoniae Y-4, penicillinase-producing; 10^6 cells per ml; read-out: MIC.
Source text: as §1, §3

Setting [20] is: T216, 10^6 cells per ml, 20 hours, read-out: MIC.
Setting [21] is: S68, Ps. aeruginosa S-68, 10^6 cells per ml, 37° C., 20 hours, read-out: MIC.
Setting [22] is: E. coli TK-3, penicillinase-producing, 10^6 cells per ml, read-out: MIC.
Where [23] appears, read: Ent. cloacae IID977, 10^6 cells per ml, 37° C., 20 hours, read-out: MIC.
The mark [24] stands for this setting: E. coli NIHJ JC-2, 10^6 cells per ml, 37° C., 20 hours, read-out: MIC.
Setting [25] is: 20 h, Pro. vulgaris GN76, cephalospolinase-producing, 10^6 cells per ml, read-out: MIC.
[26] abbreviates: St. aureus F-137, penicillinase-producing, 10^6 cells per ml, read-out: MIC.

In brackets after ≈: the same amount, converted by molar mass. Like-named read-outs stand apart in the source and are kept apart here.

As for `O=C(O)c1cn(-c2ccc(F)cc2)c(-c2ccc(Cl)s2)cc1=O`, the MIC (in general, the smallest concentration in the dilution series that meets the test's criterion for growth inhibition) in test [1] was 12.5 µg/mL (≈ 35.7 µM); in [2] it was 1.56 µg/mL (≈ 4.46 µM); in test [3], 12.5 µg/mL (≈ 35.7 µM); in [4], 50 µg/mL (≈ 143 µM); in test [5] it was 3.13 µg/mL (≈ 8.95 µM); in [6] (setting [20]), 6.25 µg/mL (≈ 17.9 µM). Further, the MIC stood at 3.13 µg/mL (≈ 8.95 µM) in test [7]; 0.39 µg/mL (≈ 1.12 µM) in test [8]; 1.56 µg/mL (≈ 4.46 µM) in [9]; 3.13 µg/mL (≈ 8.95 µM) in test [10]; 12.5 µg/mL (≈ 35.7 µM) in test [11] (T111, 20 h, 10^6 cells per ml); 25 µg/mL (≈ 71.5 µM) in test [12] (setting [21]). Moreover, the MIC in test [13] came to 100 µg/mL (≈ 286 µM); in [14], 0.39 µg/mL (≈ 1.12 µM); in [15] (GN76, 20 h), 3.13 µg/mL (≈ 8.95 µM); in test [16], 25 µg/mL (≈ 71.5 µM); in [17], 3.13 µg/mL (≈ 8.95 µM); in test [18] (setting [22]) it was 6.25 µg/mL (≈ 17.9 µM). Moreover, the MIC in test [19] is 25 µg/mL (≈ 71.5 µM).
In the case of `COc1ccc(-c2cc(=O)c(C(=O)O)cn2-c2ccc(F)cc2)cc1`, the MIC in [1] worked out at 12.5 µg/mL (≈ 36.8 µM); in test [2], 0.78 µg/mL (≈ 2.3 µM); in test [3] (setting [23]), 6.25 µg/mL (≈ 18.4 µM); in test [4], 25 µg/mL (≈ 73.7 µM); in test [5] (setting [24]) it was 1.56 µg/mL (≈ 4.6 µM); in test [6] (setting [20]), 6.25 µg/mL (≈ 18.4 µM). Moreover, the MIC in test [7] came to 3.13 µg/mL (≈ 9.22 µM); in test [8], 0.39 µg/mL (≈ 1.15 µM); in test [9] it was 1.56 µg/mL (≈ 4.6 µM); in [10], 3.13 µg/mL (≈ 9.22 µM); in [11] (T111, 20 h, 10^6 cells per ml), 12.5 µg/mL (≈ 36.8 µM); in test [12] (setting [21]), 25 µg/mL (≈ 73.7 µM). Besides, the MIC in test [13] came out at 50 µg/mL (≈ 147 µM); in [14], 0.2 µg/mL (≈ 0.589 µM); in [15] (GN76, 20 h), 3.13 µg/mL (≈ 9.22 µM); in [16], 25 µg/mL (≈ 73.7 µM); in [17] it was 3.13 µg/mL (≈ 9.22 µM); in [18], 3.13 µg/mL (≈ 9.22 µM). The MIC in test [19] was 12.5 µg/mL (≈ 36.8 µM).
In the case of `CNc1ccc(-c2cc(=O)c(C(=O)O)cn2-c2ccc(F)cc2)cc1C`, the MIC was found to be 6.25 µg/mL (≈ 17.7 µM) in [1]; 0.39 µg/mL (≈ 1.11 µM) in test [2]; 6.25 µg/mL (≈ 17.7 µM) in test [3]; 50 µg/mL (≈ 142 µM) in [4]; 1.56 µg/mL (≈ 4.43 µM) in test [5]; 6.25 µg/mL (≈ 17.7 µM) in [6] (T216, 20 h, 10^6 cells per ml). Further, the MIC stood at 1.56 µg/mL (≈ 4.43 µM) in [7]; 0.78 µg/mL (≈ 2.21 µM) in test [8]; 0.78 µg/mL (≈ 2.21 µM) in test [9]; 1.56 µg/mL (≈ 4.43 µM) in test [10]; 12.5 µg/mL (≈ 35.5 µM) in test [11] (T111, 20 h, 10^6 cells per ml); 12.5 µg/mL (≈ 35.5 µM) in [12] (S68, 20 h). For the same molecule, the MIC is 50 µg/mL (≈ 142 µM) in test [13]; 0.2 µg/mL (≈ 0.568 µM) in [14]; 3.13 µg/mL (≈ 8.88 µM) in test [15] (setting [25]); 25 µg/mL (≈ 70.9 µM) in test [16]; 0.78 µg/mL (≈ 2.21 µM) in test [17] (setting [26]); 3.13 µg/mL (≈ 8.88 µM) in test [18] (setting [22]). Besides, the MIC in [19] came out at 12.5 µg/mL (≈ 35.5 µM).
Turning to `CN(C)c1ccc(-c2cc(=O)c(C(=O)O)cn2-c2ccc(F)cc2F)cc1`, the MIC was 6.25 µg/mL (≈ 16.9 µM) in test [1]; 0.2 µg/mL (≈ 0.54 µM) in test [2]; 3.13 µg/mL (≈ 8.45 µM) in [3] (setting [23]); 12.5 µg/mL (≈ 33.8 µM) in test [4]; 0.78 µg/mL (≈ 2.11 µM) in [5] (setting [24]); 3.13 µg/mL (≈ 8.45 µM) in test [6] (setting [20]). The MIC in [7] was 0.78 µg/mL (≈ 2.11 µM); in [8] it was 0.2 µg/mL (≈ 0.54 µM); in test [9], 0.39 µg/mL (≈ 1.05 µM); in test [10] (St. aureus FDA209P, 10^6 cells per ml, 37° C., 20 hours, read-out: MIC), 0.2 µg/mL (≈ 0.54 µM); in test [11] (T111, 10^6 cells per ml, 20 hours, read-out: MIC), 3.13 µg/mL (≈ 8.45 µM); in test [12] (setting [21]), 12.5 µg/mL (≈ 33.8 µM). In addition, the MIC was 12.5 µg/mL (≈ 33.8 µM) in [13]; 0.1 µg/mL (≈ 0.27 µM) in [14]; 0.78 µg/mL (≈ 2.11 µM) in test [15] (setting [25]); 25 µg/mL (≈ 67.5 µM) in [16]; 0.1 µg/mL (≈ 0.27 µM) in test [17] (setting [26]); 3.13 µg/mL (≈ 8.45 µM) in test [18] (setting [22]). Moreover, in [19], the MIC is 6.25 µg/mL (≈ 16.9 µM).
